Article PMC5725832, “Evaluation of the effect of D-amino acid incorporation into amyloid-reactive peptides” (Journal of Translational Medicine, 2017)

Legend:
[1] = mouse, in vivo, iv
Experimental: Peptides (20–40 μg) were radiolabeled with iodine-125 (^125I; Perkin Elmer, Waltham, MA) as previously described. Briefly, ~ 2 mCi of ^125I in buffered sodium phosphate pH 7.6 was mixed with peptide and 20 μg chloramine T in a volume of 10 µL water for 1 min. The reaction was quenched using 20 μg sodium metabisulphite in 10 µL water. Radiolabeled product was separated from free isotope by gel filtration chromatography using a Sephadex G-25 size-exclusion matrix (PD10; GE Healthcare) equilibrated with 0.1% gelatin/PBS. Fractions were collected manually and radioactivity in each measured by gamma counting after which the peak fractions were pooled. Radiochemical purity was assessed qualitatively by estimating the free radioiodide from phosphor images (Cyclone Storage Phosphor System, PerkinElmer, Shelton, CT) of SDS-PAGE gels. SPECT/CT imaging was performed as described previously. […] Low energy (^125I; 25–45 keV) gamma photons were detected at each of 60, 16-s projections with 90 mm of bed travel in 1.5 revolutions. […] A small piece of each tissue was weighed in tared vials and radioactivity quantified using an automated gamma counter (1480 Wizard 3 Gamma Counter, Perkin Elmer). The tissue radioactivity data were expressed as % injected dose per gram of tissue (%ID/g). […]

[2] = Circular dichroism, heparin-induced coil-to-helix transition (ellipticity at 222 nm); assay type: physicochemical; details: CD, peptide 0.05 mg/mL, 2.9 mL sample, 1 cm path; titration of low molecular weight heparin (enoxaparin) up to 1.5 mg; data collected in triplicate
Experimental: CD spectra were obtained for all peptides (0.05 mg/mL in PBS) using a DSM 1000 CD instrument (Olis Inc., Bogart, Georgia) with a peptide sample volume of 2.9 mL and a 1 cm cuvette path length. Data were collected in triplicate over the 190–250 nm wavelength range with 1 nm increments. Increasing amounts of low molecular weight heparin (Enoxaparin sodium, Sanofi, Bridgewater, NJ) up to 1.5 mg was added to each peptide to induce secondary structure transitions. All data were corrected for background by subtraction of a PBS or PBS with enoxaparin CD spectrum. Mean residue ellipticity [Θ] was calculated according to: Θ *(MW/no. AA)/(10 *conc. *l) where: Θ is ellipticity (millidegrees); MW is the molecular weight of the peptide (3356.8 Da); no. AA, is the number of amino acid residues, (31); conc. is the peptide concentration (mg/mL), and l, is the cuvette path length (cm).

radioactivity in the kidneys [1]: ~ 39 %ID/g
Substance: aqaYS KAQKAQAKQAKQAQKAQKAQAKQAKQ [^aqap5, 31-residue p5 variant with three D-amino acids at the N-terminus; tested 125I-labeled in vivo]
half maximal value of the heparin-mediated transition in mean residue ellipticity at 222 nm [2]: 0.33 mg
